Experimental data from US6911542B2, “Pyrazino[1′,2′:1,6]pyrido[3,4b]indole derivatives” (Lilly Icos LLC., priority 2000, dated 2005).

Molecular target: T1, human recombinant PDE5 (Homo sapiens, UniProt O76074)
T1 construct: host or cells: Saccharomyces cerevisiae, protease-deficient strain BJ2-54 (ATCC 74465)
Test: cGMP-PDE one-step inhibition assay, human recombinant PDE5
Type: biochemical
Settings: 0.15 μM 8-[H3]-cGMP, 30 min incubation
Experimental: The compounds of structural formula (I) were tested for an ability to inhibit PDE5. The ability of a compound to inhibit PDE5 activity is related to the IC50 value for the compound, i.e., the concentration of inhibitor required for 50% inhibition of enzyme activity. The IC50 value for compounds of structural formula (I) were determined using recombinant human PDE5.
The production of recombinant human PDEs and the IC50 determinations can be accomplished by well-known methods in the art. Exemplary methods are described as follows:
Recombinant production of human PDE1B, PDE2, PDE4A, PDE4B, PDE4C, PDE4D, PDE5, and PDE7 was carried out similarly to that described in Example 7 of U.S. Pat. No. 5,702,936, incorporated herein by reference, except that the yeast transformation vector employed, which is derived from the basic ADH2 plasmid described in Price et al., Methods in Enzymology, 185, pp. 308-318 (1990), incorporated yeast ADH2 promoter and terminator sequences and the Saccharomyces cerevisiae host was the protease-deficient strain BJ2-54 deposited on Aug. 31, 1998 with the American Type Culture Collection, Manassas, Va., under accession number ATCC 74465. Transformed host cells were grown in 2×SC-leu medium, pH 6.2, with trace metals, and vitamins. After 24 hours, YEP medium-containing glycerol was added to a final concentration of 2×YET/3% glycerol. Approximately 24 hr later, cells were harvested, washed, and stored at −70° C. […]
Cell pellets (29 g) were thawed on ice with an equal volume of Lysis Buffer (25 mM Tris HCl, pH 8, 5 mM MgCl2, 0.25 mM DTT, 1 mM benzamidine, and 10 μM ZnSO4). Cells were lysed in a Microfluidizer® (Microfluidics Corp.) using nitrogen at 20,000 psi. The lysate was centrifuged and filtered through 0.45 μm disposable filters. The filtrate was applied to a 150 mL column of Q SEPHAROSE® Fast-Flow (Pharmacia). The column was washed with 1.5 volumes of Buffer A (20 mM Bis-Tris Propane, pH 6.8, 1 mM MgCl2, 0.25 mM DTT, 10 μM ZnSO4) and eluted with a step gradient of 125 mM NaCl in Buffer A followed by a linear gradient of 125-1000 mM NaCl in Buffer A. Active fractions from the linear gradient were applied to a 180 mL hydroxyapatite column in Buffer B (20 mM Bis-Tris Propane (pH 6.8), 1 mM MgCl2, 0.25 mM DTT, 10 μM ZnSO4, and 250 mM KCl). After loading, the column was washed with 2 volumes of Buffer B and eluted with a linear gradient of 0-125 mM potassium phosphate in Buffer B. Active fractions were pooled, precipitated with 60% ammonium sulfate, and resuspended in Buffer C (20 mM Bis-Tris Propane, pH 6.8, 125 mM NaCl, 0.5 mM DTT, and 10 μM ZnSO4). The pool was applied to a 140 mL column of […]® S-300 HR and eluted with Buffer C. Active fractions were diluted to 50% glycerol and stored at −20° C.
cGMP-PDE activity of compounds of the present invention was measured using a one-step assay adapted from Wells et al., Biochim. Biophys. Acta, 384, 430 (1975). The reaction medium contained 50 mM Tris-HCl, pH 7.5, 5 mM magnesium acetate, 250 μg/ml 5′-Nucleotidase, 1 mM EGTA, and 0.15 μM 8-[H^3]-cGMP. Unless otherwise indicated, the enzyme used was a human recombinant PDE5 (ICOS Corp., Bothell, Wash.).
Compounds of the invention were dissolved in DMSO finally present at 2% in the assay.

Row | IC50 [nM] | Structure (SMILES)
1 | 1.4 | NS(=O)(=O)c1ccc(CCN2CC(=O)N3[C@H](c4ccc5c(c4)OCO5)c4[nH]c5ccccc5c4C[C@@H]3C2=O)cc1 [Example 1, (6R-trans)-6-(1,3-Benzodioxol-5-yl)-2,3,6,7,12,12a-hexahydro-2-[2-(4-phenylsulfamoyl)-ethyl]pyrazino[1′,2′:1,6]pyrido[3,4-b]indole-1,4-dione]
2 | 2.5 | CON1CC(=O)N2[C@H](c3ccc4c(c3)OCO4)c3[nH]c4ccccc4c3C[C@@H]2C1=O [Example 3, (6R,12aR)-6-Benzo[1,3]dioxol-5-yl-2-methoxy-2,3,6,7,12,12a-hexahydropyrazino[1′,2′:1,6]-pyrido[3,4-b]indole-1,4-dione]
3 | 1.8 | NN1CC(=O)N2[C@H](c3ccc4c(c3)OCO4)c3[nH]c4ccccc4c3C[C@@H]2C1=O [Example 4, (6R,12aR)-2-Amino-6-benzo[1,3]dioxo-5-yl-2,3,6,7,12,12a-hexahydropyrazino[1′, 2′:1,6]-pyrido[3,4-b]indole-1,4-dione]
4 | 130 | CC1C(=O)N2[C@H](c3ccc4c(c3)OCO4)c3[nH]c4ccccc4c3C[C@@H]2C(=O)N1CCN(C)C (stereo partly shown) [Example 8]
5 | 40 | O=C1[C@H]2Cc3c([nH]c4ccccc34)[C@@H](c3ccc4c(c3)OCO4)N2C(=O)CN1CCCN1CCOCC1 [Example 18]
6 | 9.6 | CCOC(=O)CCN1CC(=O)N2[C@H](c3ccc4c(c3)OCO4)c3[nH]c4ccccc4c3C[C@@H]2C1=O [Example 24]
7 | 10 | COCCCN1CC(=O)N2[C@H](c3ccc4c(c3)OCO4)c3[nH]c4ccccc4c3C[C@@H]2C1=O [Example 25]
8 | 10 | CC(=O)NCCN1CC(=O)N2[C@H](c3ccc4c(c3)OCO4)c3[nH]c4ccccc4c3C[C@@H]2C1=O [Example 26]
9 | 5.4 | O=C1CCCN1CCCN1CC(=O)N2[C@H](c3ccc4c(c3)OCO4)c3[nH]c4ccccc4c3C[C@@H]2C1=O [Example 27]
10 | 3.9 | O=C(CN1CC(=O)N2[C@H](c3ccc4c(c3)OCO4)c3[nH]c4ccccc4c3C[C@@H]2C1=O)Nc1ccccc1 [Example 28]
11 | 5.9 | COCCN1CC(=O)N2[C@H](c3ccc4c(c3)OCO4)c3[nH]c4ccccc4c3C[C@@H]2C1=O [Example 29]
12 | 20 | O=C(CN1CC(=O)N2[C@H](c3ccc4c(c3)OCO4)c3[nH]c4ccccc4c3C[C@@H]2C1=O)NCc1ccccc1 [Example 30]
13 | 10 | O=C1[C@H]2Cc3c([nH]c4ccccc34)[C@@H](c3ccc4c(c3)OCO4)N2C(=O)CN1CCCn1ccnc1 [Example 32]
14 | 10 | O=C(CCN1CC(=O)N2[C@H](c3ccc4c(c3)OCO4)c3[nH]c4ccccc4c3C[C@@H]2C1=O)NC1CCCCC1 [Example 33]
15 | 10 | CCCCN(C)C(=O)CCCN1CC(=O)N2[C@H](c3ccc4c(c3)OCO4)c3[nH]c4ccccc4c3C[C@@H]2C1=O [Example 34]
16 | 4.3 | O=C(CCCN1CC(=O)N2[C@H](c3ccc4c(c3)OCO4)c3[nH]c4ccccc4c3C[C@@H]2C1=O)NC1CCCCC1 [Example 35]
17 | 50 | O=C(O)CCN1CC(=O)N2[C@H](c3ccc4c(c3)OCO4)c3[nH]c4ccccc4c3C[C@@H]2C1=O [Example 36]
18 | 3.9 | O=C(CN1CC(=O)N2[C@H](c3ccc4c(c3)OCO4)c3[nH]c4ccccc4c3C[C@@H]2C1=O)Nc1ccncc1 [Example 38]
19 | 30 | CCOCCCN1CC(=O)N2[C@H](c3ccc4c(c3)OCO4)c3[nH]c4ccccc4c3C[C@@H]2C1=O [Example 39]
20 | 10 | O=C1[C@H]2Cc3c([nH]c4ccccc34)[C@@H](c3ccc4c(c3)OCO4)N2C(=O)CN1CCOCCO [Example 40]
21 | 140 | O=C(CN1CC(=O)N2[C@H](c3ccc4c(c3)OCO4)c3[nH]c4ccccc4c3C[C@@H]2C1=O)N1CCN(c2ccccc2)CC1 [Example 42]
22 | 100 | CN(C(=O)CN1CC(=O)N2[C@H](c3ccc4c(c3)OCO4)c3[nH]c4ccccc4c3C[C@@H]2C1=O)c1ccccc1 [Example 43]
23 | 50 | CN1CCN(CCN2CC(=O)N3[C@H](c4ccc5c(c4)OCO5)c4[nH]c5ccccc5c4C[C@@H]3C2=O)CC1 [Example 46]

Row | IC50 [nM] | Structure (SMILES)
24 | 4.3 | O=C(O)c1ccc(CN2CC(=O)N3[C@H](c4ccc5c(c4)OCO5)c4[nH]c5ccccc5c4C[C@@H]3C2=O)cc1 [Example 47]
25 | 5.1 | O=C1[C@H]2Cc3c([nH]c4ccccc34)[C@@H](c3ccc4c(c3)OCO4)N2C(=O)CN1Cc1ccc(NS(=O)(=O)C(F)(F)F)cc1 [Example 57]
26 | 20 | NS(=O)(=O)c1ccc(CN2CC(=O)N3[C@H](c4ccc5c(c4)OCO5)c4[nH]c5ccccc5c4C[C@@H]3C2=O)cc1 [Example 58]
27 | 70 | N#Cc1ccc(CN2CC(=O)N3[C@H](c4ccc5c(c4)OCO5)c4[nH]c5ccccc5c4C[C@@H]3C2=O)cc1 [Example 59]
28 | 10 | N#CCN1CC(=O)N2[C@H](c3ccc4c(c3)OCO4)c3[nH]c4ccccc4c3C[C@@H]2C1=O [Example 60]
29 | 20 | COC(=O)c1ccc(CN2CC(=O)N3[C@H](c4ccc5c(c4)OCO5)c4[nH]c5ccccc5c4C[C@@H]3C2=O)cc1 [Example 62]
30 | 20 | O=C1[C@H]2Cc3c([nH]c4ccccc34)[C@@H](c3ccc4c(c3)OCO4)N2C(=O)CN1CCc1cnc[nH]1 [Example 64]
31 | 40 | Nc1ccc(CCN2CC(=O)N3[C@H](c4ccc5c(c4)OCO5)c4[nH]c5ccccc5c4C[C@@H]3C2=O)cc1 [Example 66]
32 | 6.2 | NS(=O)(=O)c1ccc(CCN2CC(=O)N3[C@H](c4ccc5c(c4)OCO5)c4[nH]c5ccccc5c4C[C@@H]3C2=O)cc1 [Example 67]
33 | 40 | O=C(CN1CC(=O)N2[C@H](c3ccc4c(c3)OCO4)c3[nH]c4ccccc4c3C[C@@H]2C1=O)OCc1ccccc1 [Example 68]
34 | 20 | O=C(O)CN1CC(=O)N2[C@H](c3ccc4c(c3)OCO4)c3[nH]c4ccccc4c3C[C@@H]2C1=O [Example 69]
35 | 10 | CC(C)(C)OC(=O)CCN1CC(=O)N2[C@H](c3ccc4c(c3)OCO4)c3[nH]c4ccccc4c3C[C@@H]2C1=O [Example 71]
36 | 2.3 | O=C(O)CCN1CC(=O)N2[C@H](c3ccc4c(c3)OCO4)c3[nH]c4ccccc4c3C[C@@H]2C1=O [Example 72]
37 | 1.7 | O=C1[C@H]2Cc3c([nH]c4ccccc34)[C@@H](c3ccc4c(c3)OCO4)N2C(=O)CN1Cc1cccc(NS(=O)(=O)C(F)(F)F)c1 [Example 77]
38 | 6.3 | O=C1[C@H]2Cc3c([nH]c4ccccc34)[C@@H](c3ccc4c(c3)OCO4)N2C(=O)CN1CCCn1cccn1 [Example 79]
39 | 290 | CN(C)CCOc1ccc(CN2CC(=O)N3[C@H](c4ccc5c(c4)OCO5)c4[nH]c5ccccc5c4C[C@@H]3C2=O)cc1 [Example 81]
40 | 30 | O=C1C2Cc3c([nH]c4ccccc34)C(c3ccc4c(c3)OCO4)N2C(=O)CN1CCn1cncn1 (stereo not shown) [Example 82]
41 | 40 | CNc1cc(CN2CC(=O)N3[C@H](c4ccc5c(c4)OCO5)c4[nH]c5ccccc5c4C[C@@H]3C2=O)cc([N+](=O)[O-])c1 [Example 83]
42 | 120 | CN1CCN(NC(=O)CN2CC(=O)N3[C@H](c4ccc5c(c4)OCO5)c4[nH]c5ccccc5c4C[C@@H]3C2=O)CC1 [Example 84]
43 | 20 | Cn1cnc2cc(CN3CC(=O)N4[C@H](c5ccc6c(c5)OCO6)c5[nH]c6ccccc6c5C[C@@H]4C3=O)ccc21 [Example 85]
44 | 70 | CC(C)(C)OC(=O)CN1CC(=O)N2[C@H](c3ccc4c(c3)OCO4)c3[nH]c4ccccc4c3C[C@@H]2C1=O [Example 86]
45 | 20 | COC(=O)CN1CC(=O)N2[C@H](c3ccc4c(c3)OCO4)c3[nH]c4ccccc4c3C[C@@H]2C1=O [Example 87]

Row | Structure (SMILES) | IC50 [nM]
46 | O=C(CN1CC(=O)N2[C@H](c3ccc4c(c3)OCO4)c3[nH]c4ccccc4c3C[C@@H]2C1=O)N1CCCCC1 [Example 31] | 20
